# Assay results published in paper PMC4004761 (Journal of medicinal chemistry, 2013).
# Where two headings read alike, the source gives them in different places. Marks after values point to notes of the source that are not given here.
# Assays:
# [1] = test system: maximal electroshock seizure (hind-limb tonic extension); details: mouse
# [2] = test system: maximal electroshock seizure (hind-limb tonic extension); details: in vivo, cited from earlier work
# [3] = test system: kindled seizures (seizure score, after-discharge duration); details: for Effect in rat kindling model: Figure 1
# sound-induced seizures = assay: animal or person; details: Mus musculus, ip, read-out: Audiogenic seizure ED50
# [4] = test system: maximal electroshock seizure (hind-limb tonic extension); details: at 2 h (time of peak effect); cited from earlier work
# [5] = test system: chemically-induced forelimb clonic seizures; details: mouse, cited from earlier work
# [6] = test system: kindled seizures (seizure score, after-discharge duration); details: cited from earlier work
# rat Nav1.2 = rat Nav1.2 (Rattus norvegicus, UniProt P04775); assay: Voltage-gated Na+ channel whole-cell patch-clamp in CHL1610 cells; format: cell-based
# rat KCNQ2 = rat KCNQ2 (Rattus norvegicus, UniProt O88943); assay: KCNQ2 whole-cell patch-clamp, M-current protocol; format: cell-based
# kappa-opioid receptor = kappa-opioid receptor (Homo sapiens, UniProt P41145); assay: Cerep receptor-binding panel: kappa opioid; details: read-out: Inhibition, kappa-opioid receptor
# Chain of kappa-opioid receptor (P41145 whole entry): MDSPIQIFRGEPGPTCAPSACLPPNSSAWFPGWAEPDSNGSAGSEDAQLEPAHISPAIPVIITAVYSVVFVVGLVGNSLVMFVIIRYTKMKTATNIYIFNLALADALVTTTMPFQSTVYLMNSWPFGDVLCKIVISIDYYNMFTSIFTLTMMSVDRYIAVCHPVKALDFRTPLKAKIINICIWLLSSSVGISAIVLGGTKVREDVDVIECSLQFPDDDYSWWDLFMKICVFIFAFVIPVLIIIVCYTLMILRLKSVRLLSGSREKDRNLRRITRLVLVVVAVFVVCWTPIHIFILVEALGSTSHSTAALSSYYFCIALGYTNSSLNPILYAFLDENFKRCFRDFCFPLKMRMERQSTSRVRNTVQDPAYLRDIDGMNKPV
# Chain of rat KCNQ2 (O88943 whole entry): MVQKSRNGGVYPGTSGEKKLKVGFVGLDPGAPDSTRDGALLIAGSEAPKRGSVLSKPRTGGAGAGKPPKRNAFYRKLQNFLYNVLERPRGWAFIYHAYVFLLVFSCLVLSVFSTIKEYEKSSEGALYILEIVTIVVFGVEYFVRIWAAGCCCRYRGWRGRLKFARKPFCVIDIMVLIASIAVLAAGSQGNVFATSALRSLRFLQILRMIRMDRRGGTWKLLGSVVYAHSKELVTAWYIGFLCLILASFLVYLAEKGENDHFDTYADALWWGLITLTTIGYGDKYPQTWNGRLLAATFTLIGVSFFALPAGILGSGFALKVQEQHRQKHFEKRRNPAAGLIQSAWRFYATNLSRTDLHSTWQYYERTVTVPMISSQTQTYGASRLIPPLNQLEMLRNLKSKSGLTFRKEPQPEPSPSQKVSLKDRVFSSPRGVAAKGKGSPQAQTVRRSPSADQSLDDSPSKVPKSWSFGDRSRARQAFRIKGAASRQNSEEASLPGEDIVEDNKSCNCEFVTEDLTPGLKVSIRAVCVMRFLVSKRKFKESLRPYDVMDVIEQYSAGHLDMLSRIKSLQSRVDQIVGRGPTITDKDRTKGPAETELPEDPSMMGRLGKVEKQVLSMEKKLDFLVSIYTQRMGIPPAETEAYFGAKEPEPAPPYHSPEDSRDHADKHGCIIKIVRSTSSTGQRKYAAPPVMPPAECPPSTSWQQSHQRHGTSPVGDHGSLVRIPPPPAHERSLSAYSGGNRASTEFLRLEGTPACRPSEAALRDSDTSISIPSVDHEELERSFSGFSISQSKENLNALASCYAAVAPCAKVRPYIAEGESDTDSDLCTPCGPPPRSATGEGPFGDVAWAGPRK
# Chain of rat Nav1.2 (P04775 whole entry): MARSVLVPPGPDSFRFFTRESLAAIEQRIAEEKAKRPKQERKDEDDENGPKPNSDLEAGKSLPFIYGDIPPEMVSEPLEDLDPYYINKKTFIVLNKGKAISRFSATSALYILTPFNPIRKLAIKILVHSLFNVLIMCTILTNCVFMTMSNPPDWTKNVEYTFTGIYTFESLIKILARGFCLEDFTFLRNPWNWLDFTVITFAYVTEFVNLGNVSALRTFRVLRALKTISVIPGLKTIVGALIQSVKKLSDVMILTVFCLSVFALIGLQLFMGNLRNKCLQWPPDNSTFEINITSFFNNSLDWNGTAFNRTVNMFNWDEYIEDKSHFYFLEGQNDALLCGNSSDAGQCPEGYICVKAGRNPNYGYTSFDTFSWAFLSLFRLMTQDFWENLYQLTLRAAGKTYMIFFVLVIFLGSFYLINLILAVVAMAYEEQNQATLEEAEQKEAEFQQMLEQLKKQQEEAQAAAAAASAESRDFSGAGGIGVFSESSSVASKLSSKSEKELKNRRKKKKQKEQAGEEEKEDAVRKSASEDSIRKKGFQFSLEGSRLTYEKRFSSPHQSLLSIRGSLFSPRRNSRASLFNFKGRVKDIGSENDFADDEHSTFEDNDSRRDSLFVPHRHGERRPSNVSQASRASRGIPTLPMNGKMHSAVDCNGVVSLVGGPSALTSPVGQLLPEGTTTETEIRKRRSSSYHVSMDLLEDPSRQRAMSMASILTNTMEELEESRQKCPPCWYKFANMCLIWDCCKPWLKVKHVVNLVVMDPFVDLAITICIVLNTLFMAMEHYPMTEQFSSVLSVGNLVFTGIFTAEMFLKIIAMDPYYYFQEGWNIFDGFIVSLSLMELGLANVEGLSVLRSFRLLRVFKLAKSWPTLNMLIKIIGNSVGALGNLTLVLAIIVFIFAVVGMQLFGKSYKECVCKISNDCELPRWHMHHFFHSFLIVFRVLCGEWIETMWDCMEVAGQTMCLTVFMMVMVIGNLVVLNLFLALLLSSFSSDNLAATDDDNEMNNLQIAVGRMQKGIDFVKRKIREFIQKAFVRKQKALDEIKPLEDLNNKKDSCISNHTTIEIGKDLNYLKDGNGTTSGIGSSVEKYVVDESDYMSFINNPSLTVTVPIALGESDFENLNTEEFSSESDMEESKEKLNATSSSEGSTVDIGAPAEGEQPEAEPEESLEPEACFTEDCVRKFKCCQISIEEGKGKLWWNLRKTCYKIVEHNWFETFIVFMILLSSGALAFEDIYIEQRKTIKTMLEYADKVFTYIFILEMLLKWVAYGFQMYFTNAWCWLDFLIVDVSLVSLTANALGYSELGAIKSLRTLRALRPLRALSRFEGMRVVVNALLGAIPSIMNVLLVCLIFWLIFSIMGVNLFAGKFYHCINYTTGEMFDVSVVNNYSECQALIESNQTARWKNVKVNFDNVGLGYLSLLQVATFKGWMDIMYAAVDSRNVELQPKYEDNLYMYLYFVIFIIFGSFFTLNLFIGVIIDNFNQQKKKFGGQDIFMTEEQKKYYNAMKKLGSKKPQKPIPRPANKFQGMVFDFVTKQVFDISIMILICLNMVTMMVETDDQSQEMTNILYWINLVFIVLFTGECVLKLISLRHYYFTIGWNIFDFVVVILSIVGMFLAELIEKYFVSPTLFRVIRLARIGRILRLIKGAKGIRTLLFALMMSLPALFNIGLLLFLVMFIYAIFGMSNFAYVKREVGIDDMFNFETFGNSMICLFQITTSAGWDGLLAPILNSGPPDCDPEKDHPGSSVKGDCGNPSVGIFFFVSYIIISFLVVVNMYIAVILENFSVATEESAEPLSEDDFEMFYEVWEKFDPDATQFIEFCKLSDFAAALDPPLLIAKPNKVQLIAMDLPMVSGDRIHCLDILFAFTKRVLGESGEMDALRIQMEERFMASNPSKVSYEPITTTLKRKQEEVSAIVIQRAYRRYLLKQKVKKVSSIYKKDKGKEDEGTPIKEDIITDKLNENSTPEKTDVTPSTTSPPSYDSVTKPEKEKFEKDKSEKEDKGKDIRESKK
compound,measurement,setting,value
NS(=O)(=O)NC[C@H]1COc2c(Cl)cccc2O1 [10a],"MES, po, effect (animals responding / animals tested)","[1]; 100 mg/kg po, 0.5 h",0/5
same,"MES, po, effect (animals responding / animals tested)","[1]; 100 mg/kg po, 2 h",1/5
COc1cccc2c1O[C@@H](CNS(N)(=O)=O)CO2 [10g],"MES, po, effect (animals responding / animals tested)","[1]; 100 mg/kg po, 0.5 h","0.5, 0/5; 2, 0/5 ^j"
same,"MES, po, effect (animals responding / animals tested)","[1]; 100 mg/kg po, 2 h","0.5, 0/5; 2, 0/5 ^j"
NS(=O)(=O)NCC1Oc2ccc(Cl)cc2O1 (centres unmarked) [11b],"MES, po, effect (animals responding / animals tested)","[1]; 100 mg/kg po, 0.5 h","0.5, 0/5; 2, 0/5"
same,"MES, po, effect (animals responding / animals tested)","[1]; 100 mg/kg po, 2 h","0.5, 0/5; 2, 0/5"
CCCCNS(N)(=O)=O [BuNHSO2NH2],Activity in the MES test,[2]; mouse,not active
NS(=O)(=O)NCc1ccccc1 [PhCH2NHSO2NH2],Mouse MES effect (animals protected / tested),[2]; 100 mg/kg,3/3
same,Mouse MES effect (animals protected / tested),[2]; 300 mg/kg,3/3
NC(=O)N1c2ccccc2C=Cc2ccccc21 [carbamazepine],Effect in rat kindling model,[3]; maximally effective dose,significantly suppressed seizure activity
same,Doses giving protection similar to 4 (range of neurotoxic effects),[3]; rat kindling,> 26 mg/kg
"CC1(C)O[C@@H]2[C@@H](CO[C@@]3(COS(N)(=O)=O)OC(C)(C)O[C@@H]23)O1 [compound 1, topiramate]",Rats with complete protection,[3]; maximally effective dose,one out of eight
same,Effect in rat kindling model,[3]; maximally effective dose,not effective
same,Oral mouse MES ED50,[2],43.8 ^f mg/kg
same,"MES, po, effect (animals responding / animals tested)",[2]; mouse,"0.5, 2/5; 2, 4/5 ^l"
same,ED50,sound-induced seizures,4.2 mg/kg
"NS(=O)(=O)NCc1csc2ccccc12 [compound 3, N-((benzo[b]thien-3-yl)methyl)sulfamide]",Oral mouse MES ED50,[2],119 ^c mg/kg
same,"MES, po, effect (animals responding / animals tested)","[2]; mouse, 100 mg/kg","0.5, 1/5; 2, 3/5"
same,Rat MES oral ED50,[4],34 mg/kg
same,ED50 vs s.c. Bic-induced forelimb clonic seizures,"[5]; ip, […]",156 mg/kg
same,ED50 vs s.c. PTZ-induced forelimb clonic seizures,"[5]; ip, […]",161 mg/kg
same,ED50 vs s.c. Pic-induced forelimb clonic seizures,"[5]; ip, […]",106 mg/kg
same,Rats with complete absence of seizure activity,"[6]; maximally effective dose, time of peak effect",six out of eight
same,Reduction of after-discharge duration,"[6]; rat, i.p., p < 0.01",64%
same,Rats with seizure score reduced from 5 to 0,"[6]; rat, i.p., p = 0.0001",six out of eight
same,Time of peak activity,"[6]; rat, i.p., sustained at 1 h",15 min
"NS(=O)(=O)NC[C@H]1COc2cc(Cl)ccc2O1 [compound 4, (2S)-(–)-N-((6-Chloro-2,3-dihydrobenzo[1,4]dioxin-2-yl)methyl)sulfamide]",Nav1.2 inhibition at −107 mV,rat Nav1.2; at −107 mV,virtually no inhibition
same,Increase in KCNQ2 current,"rat KCNQ2; 300 μM, −50 mV, N = 5 cells",2.4 fold
same,Increase in decay kinetics,"rat KCNQ2; 300 μM, −50 mV, N = 5 cells",2 fold
same,Increase in KCNQ2 current,rat KCNQ2; 750 μM,4 fold
same,inhibition at 10 µM,kappa-opioid receptor,45%
same,Effect on after-discharge duration,"[3]; rat, i.p., p = 0.07",no statistically significant effect
"CN(C)S(=O)(=O)NCC1COc2ccccc2O1 (centres unmarked) [compound 7, N-((2,3-Dihydrobenzo[1,4]dioxin-2-yl)methyl)-N’,N’-dimethylsulfamide]","MES, po, effect (animals responding / animals tested)","[1]; 300 mg/kg po, 0.5 h",4/5
same,"MES, po, effect (animals responding / animals tested)","[1]; 300 mg/kg po, 2 h",0/5
CCC1(C)CC(=O)NC1=O (centres unmarked) [ethosuximide],Effect in rat kindling model,[3]; maximally effective dose,not effective
NCC1(CC(=O)O)CCCCC1 [gabapentin],Effect on Na+ channel activity,rat Nav1.2; up to 300 μM,no effect
CC[C@@H](C(N)=O)N1CCCC1=O [levetiracetam],ED50 in chemically-induced seizures (comparators),[5],> 540 mg/kg
O=C1NC(=O)C(c2ccccc2)(c2ccccc2)N1 [phenytoin],Effect in rat kindling model,[3]; maximally effective dose,significantly suppressed seizure activity
CCCC(CCC)C(=O)O [valproic acid],Effect in rat kindling model,[3]; maximally effective dose,significantly suppressed seizure activity
same,Doses giving protection similar to 3 (range of neurotoxic effects),[3]; rat kindling,> 300 mg/kg
same,ED50 in chemically-induced seizures (comparators),[5],> 200 mg/kg
